Test results from PubChem BioAssay (NCI).
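Interpolation was linear, between the two tested concentrations surrounding the appropriate level; five concentrations were tested over 48 hours in 96-well plates. The concentration for 50% growth inhibition is given as GI50. TGI is the concentration that stops growth completely.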

Experiments:
Experiment in all cases: DTP human tumour cell line panel, 48 h
786-0 renal = system: 786-0 renal
A498 renal = system: A498 renal
A549 NSCLC = system: A549 NSCLC
ACHN renal = system: ACHN renal
BT-549 breast = system: BT-549 breast
CAKI-1 renal = system: CAKI-1 renal
CCRF-CEM leukemia = system: CCRF-CEM leukemia
COLO 205 colon = system: COLO 205 colon
DU-145 prostate = system: DU-145 prostate
HCC-2998 colon = system: HCC-2998 colon
HCT-116 colon = system: HCT-116 colon
HCT-15 colon = system: HCT-15 colon
HL-60(TB) leukemia = system: HL-60(TB) leukemia
HOP-62 NSCLC = system: HOP-62 NSCLC
HS 578T breast = system: HS 578T breast
HT29 colon = system: HT29 colon
IGROV1 ovarian = system: IGROV1 ovarian
K-562 leukemia = system: K-562 leukemia
KM12 colon = system: KM12 colon
M14 melanoma = system: M14 melanoma
MALME-3M melanoma = system: MALME-3M melanoma
MCF7 breast = system: MCF7 breast
MDA-MB-231 breast = system: MDA-MB-231 breast
MDA-MB-435 = system: MDA-MB-435
MOLT-4 leukemia = system: MOLT-4 leukemia
NCI-H226 lung = system: NCI-H226 lung
NCI-H23 lung = system: NCI-H23 lung
NCI-H460 lung = system: NCI-H460 lung
NCI-H522 lung = system: NCI-H522 lung
NCI/ADR-RES ovarian = system: NCI/ADR-RES ovarian
OVCAR-3 ovarian = system: OVCAR-3 ovarian
OVCAR-4 ovarian = system: OVCAR-4 ovarian
OVCAR-5 ovarian = system: OVCAR-5 ovarian
OVCAR-8 ovarian = system: OVCAR-8 ovarian
PC-3 prostate = system: PC-3 prostate
RPMI-8226 leukemia = system: RPMI-8226 leukemia
RXF 393 renal = system: RXF 393 renal
SF-268 CNS = system: SF-268 CNS
SF-295 CNS = system: SF-295 CNS
SF-539 CNS = system: SF-539 CNS
SK-MEL-28 melanoma = system: SK-MEL-28 melanoma
SK-MEL-5 melanoma = system: SK-MEL-5 melanoma
SK-OV-3 ovarian = system: SK-OV-3 ovarian
SN12C renal = system: SN12C renal
SNB-19 CNS = system: SNB-19 CNS
SNB-75 CNS = system: SNB-75 CNS
SR leukemia = system: SR leukemia
SW-620 colon = system: SW-620 colon
T-47D breast = system: T-47D breast
TK-10 renal = system: TK-10 renal
UACC-257 melanoma = system: UACC-257 melanoma
UACC-62 melanoma = system: UACC-62 melanoma
UO-31 renal = system: UO-31 renal

SMILES: Cc1c(C2Nc3ccccc3C2C)[nH]c2ccccc12 (stereo unspecified)
- GI50 (786-0 renal): 12 µM
- TGI (786-0 renal): 31.5 µM
- GI50 (A498 renal): 10.7 µM
- TGI (A498 renal): 23.1 µM
- GI50 (A549 NSCLC): 1.67 µM
- TGI (A549 NSCLC): 24.1 µM
- GI50 (ACHN renal): 10.1 µM
- TGI (ACHN renal): 23.1 µM
- GI50 (BT-549 breast): 13.8 µM
- TGI (BT-549 breast): 34.5 µM
- GI50 (CAKI-1 renal): 2.45 µM
- TGI (CAKI-1 renal): 22.8 µM
- GI50 (CCRF-CEM leukemia): 0.801 µM
- TGI (CCRF-CEM leukemia): 46.6 µM
- GI50 (COLO 205 colon): 10.5 µM
- TGI (COLO 205 colon): 22.5 µM
- GI50 (DU-145 prostate): 14.5 µM
- TGI (DU-145 prostate): 38.7 µM
- GI50 (HCC-2998 colon): 12.6 µM
- TGI (HCC-2998 colon): 26.6 µM
- GI50 (HCT-116 colon): 0.83 µM
- TGI (HCT-116 colon): 23.5 µM
- GI50 (HCT-15 colon): 0.297 µM
- TGI (HCT-15 colon): 25.9 µM
- GI50 (HL-60(TB) leukemia): 13.1 µM
- TGI (HL-60(TB) leukemia): 38.3 µM
- GI50 (HOP-62 NSCLC): 12.1 µM
- TGI (HOP-62 NSCLC): 26.1 µM
- GI50 (HS 578T breast): 16.1 µM
- TGI (HS 578T breast): 49.7 µM
- GI50 (HT29 colon): 4.48 µM
- TGI (HT29 colon): 23.1 µM
- GI50 (IGROV1 ovarian): 2.96 µM
- TGI (IGROV1 ovarian): 27.3 µM
- GI50 (K-562 leukemia): 0.89 µM
- TGI (K-562 leukemia): 50.4 µM
- GI50 (KM12 colon): 7.45 µM
- TGI (KM12 colon): 29.1 µM
- GI50 (M14 melanoma): 15.3 µM
- TGI (M14 melanoma): 38.7 µM
- GI50 (MALME-3M melanoma): 10.6 µM
- TGI (MALME-3M melanoma): 24.8 µM
- GI50 (MCF7 breast): 4.26 µM
- TGI (MCF7 breast): 27.8 µM
- GI50 (MDA-MB-231 breast): 5.37 µM
- TGI (MDA-MB-231 breast): 21.4 µM
- GI50 (MDA-MB-435): 10.6 µM
- TGI (MDA-MB-435): 24.6 µM
- GI50 (MOLT-4 leukemia): 11.2 µM
- TGI (MOLT-4 leukemia): 49.5 µM
- GI50 (NCI-H226 lung): 10.9 µM
- TGI (NCI-H226 lung): 31.3 µM
- GI50 (NCI-H23 lung): 14.5 µM
- TGI (NCI-H23 lung): 32.1 µM
- GI50 (NCI-H460 lung): 0.43 µM
- TGI (NCI-H460 lung): 18.3 µM
- GI50 (NCI-H522 lung): 10.8 µM
- TGI (NCI-H522 lung): 26.5 µM
- GI50 (NCI/ADR-RES ovarian): 10.4 µM
- TGI (NCI/ADR-RES ovarian): 30.7 µM
- GI50 (OVCAR-3 ovarian): 11.6 µM
- TGI (OVCAR-3 ovarian): 27.2 µM
- GI50 (OVCAR-4 ovarian): 6.17 µM
- TGI (OVCAR-4 ovarian): 21.6 µM
- GI50 (OVCAR-5 ovarian): 14.8 µM
- TGI (OVCAR-5 ovarian): 30.9 µM
- GI50 (OVCAR-8 ovarian): 9.1 µM
- TGI (OVCAR-8 ovarian): 29.2 µM
- GI50 (PC-3 prostate): 10.6 µM
- TGI (PC-3 prostate): 32.3 µM
- GI50 (RPMI-8226 leukemia): 5.29 µM
- TGI (RPMI-8226 leukemia): 52.3 µM
- GI50 (RXF 393 renal): 12.4 µM
- TGI (RXF 393 renal): 28.8 µM
- GI50 (SF-268 CNS): 12.8 µM
- TGI (SF-268 CNS): 45.6 µM
- GI50 (SF-295 CNS): 11.5 µM
- TGI (SF-295 CNS): 28.1 µM
- GI50 (SF-539 CNS): 8.72 µM
- TGI (SF-539 CNS): 25.1 µM
- GI50 (SK-MEL-28 melanoma): 12 µM
- TGI (SK-MEL-28 melanoma): 26.2 µM
- GI50 (SK-MEL-5 melanoma): 0.894 µM
- TGI (SK-MEL-5 melanoma): 17.4 µM
- GI50 (SK-OV-3 ovarian): 13.1 µM
- TGI (SK-OV-3 ovarian): 29.9 µM
- GI50 (SN12C renal): 11.4 µM
- TGI (SN12C renal): 24.1 µM
- GI50 (SNB-19 CNS): 13.8 µM
- TGI (SNB-19 CNS): 38 µM
- GI50 (SNB-75 CNS): 5.06 µM
- TGI (SNB-75 CNS): 29.8 µM
- GI50 (SR leukemia): 0.738 µM
- TGI (SR leukemia): 26.3 µM
- GI50 (SW-620 colon): 2.33 µM
- TGI (SW-620 colon): 32.7 µM
- GI50 (T-47D breast): 6.16 µM
- TGI (T-47D breast): 24 µM
- GI50 (TK-10 renal): 17.4 µM
- TGI (TK-10 renal): 34.2 µM
- GI50 (UACC-257 melanoma): 12.4 µM
- TGI (UACC-257 melanoma): 28.3 µM
- GI50 (UACC-62 melanoma): 6.24 µM
- TGI (UACC-62 melanoma): 21.3 µM
- GI50 (UO-31 renal): 6.27 µM
- TGI (UO-31 renal): 22.1 µM
